In patent US20130252890A1, “6,7-DIHYDRO-5H-BENZO[7]ANNULENE DERIVATIVES, PROCESS FOR PREPARATION THEREOF, PHARMACEUTICAL PREPARATIONS COMPRISING THEM, AND THE USE THEREOF FOR PRODUCTION OF MEDICAMENTS” (BAYER INTELLECTUAL PROPERTY GMBH, priority 2010, published 2013):
Entries after “also recorded” stand apart in the source; their conditions may differ.

Tests used:
[1] = system: uterus; assay: Oestrogenic action - uterus growth test in the infantile rat; assay type: in vivo; settings: sc, 72 h, s.c. 3 days, maximum at dose 0.03 mg/kg, relative to E2 0.3 μg/animal, read-out: maximum uterotropic action (% estradiol action) in the dose range from 0.03 to 3 mg/kg
Protocol: Both the uterus and the vagina show a weight increase that is dependent on oestrogenic efficacy, in infantile animals when they are treated with a substance with oestrogenic action. In the uterus, under oestrogenic action there is also proliferation and increase in height of the luminal epithelium.
Immature, intact rats (n=5-6 animals/group; body weight 40-50 g) receive the substance s.c. for 3 days (d1-d3). On day 4 (d4) the animals are killed with CO2. The uteri are removed and weighed. For histological assessment, a piece of uterus, preferably a uterine horn, is fixed in formaldehyde and embedded in paraffin. The stimulation of the organ weights (relative to mg/100 g body weight) and the height of the epithelium are shown as percentage stimulation in comparison with the reference compound 17β-estradiol (E2). (Substitution dose of E2 0.3 μg/animal).

[2] = system: peripheral cholesterol level; assay: Hepatic oestrogenicity in the ovariectomized adult rat (plasma cholesterol); assay type: in vivo; settings: ovariectomized adult rats, s.c. daily for 6 days; cholesterol day 0 vs day 8
From the text: Substances with oestrogenic action influence the synthesis of various plasma proteins, of coagulation factors and fibrinolytic factors in the liver. […] In the present investigations, lowering of the peripheral cholesterol level is used as a surrogate parameter for analysis of the hepatic oestrogenicity of the claimed pharmacological compounds. Adult ovariectomized rats were, after a pause of 6-10 days, treated daily for 6 days with the substances by subcutaneous application. The plasma cholesterol levels were determined and compared before and after the respective treatment.

[3] = system: trabecular bone density and uterus weight; assay type: in vivo, rat; settings: adult ovariectomized rats, 56 days; compound 44 oral 1-10 mg/kg, effect already beginning with 1 mg/kg
Protocol: 3-months-old female rats are ovariectomized and immediately after the operation they are treated with the test compound once daily for 56 days. Application is oral in peanut oil/ethanol. The animals are killed on the day after the last application and the tibia and the uteri are removed. The uteri are weighed, fixed and prepared for histological investigations. Bone density is determined ex vivo on prepared long bones by pQCT (peripheral quantitative computed tomography).
Ovariectomy leads to a decrease in density of the trabecular bone in the measured region. By treatment with a compound of general formula I according to the present invention (dosages of 1-10 mg/kg/day) the decline in bone density is prevented or inhibited. Bone density was measured on the proximal tibia.
The bone-protective action in adult ovariectomized female animals (rat) was investigated as described. […] The selected claimed pharmacological example compound 44 was applied orally at dosages from 1-10 mg/kg.

In the case of `O=C(c1ccc(OCCN2CCCCC2)cc1)c1c(-c2ccc(O)cc2)sc2cc(O)ccc12` [raloxifene, reference compound], the Emax at 0.03 mg/kg [1] is reported as 18%, the “hepatic oestrogenicity: lowering of the peripheral cholesterol level” value [2] is reported as “hepatic oestrogenicity at all dosages tested; also recorded: marked lowering of the cholesterol level at all dosages” and the “bone-protective action (trabecular bone mass density, tibia)” value [3] is reported as “marked bone protective action”.
